In patent publication US4149007A, “C14 Phenyl-substituted derivatives of prostaglandin analogues” (Miles Laboratories, Inc., priority 1977, dated 1979):

What was measured:
[1] = system: human platelet; assay: Inhibition of human platelet aggregation in vitro; type: cell-based; conditions: human platelet rich plasma, collagen-induced
Protocol: (E) effect on human platelet aggregation in vitro; and
The ability of test compounds to inhibit platelet aggregation was determined by a modification of the turbidometric technique of Born, G. V. R. (Nature, 194: 927 [1962]). Blood was collected from human volunteers, who had not ingested aspirin or aspirin-containing products within the preceding two weeks, in heparinized containers and was allowed to settle for one (1) hour. The platelet rich plasma (prp) supernates were collected and pooled. Siliconized glassware was used throughout.
In a representative assay, 1.9 ml of PRP and 0.2 ml of test compound at the appropriate concentration ([…]), or 0.2 ml of distilled water (control procedure) were placed in sample cuvettes. The cuvettes were placed in a 37° C. incubation block for 15 minutes, and then in a spectrophotometer linked to a strip chart recorder. After 30-60 seconds, 0.2 ml of a solution, prepared by diluting a calf-skin collagen solution 1:9 with Tyrodes' Solution, was added to each cuvette. Platelet aggregation was evidenced by a decrease in optical density.
An ED50 value was then determined graphically.

[2] = system: rat; assay: Effects on gastric secretion in the rat; type: in vivo; conditions: pylorus ligated, 1.5 mg/kg s.c. twice (total 3.0 mg/kg), 4 hours
Protocol: (F) effect on gastric secretion in the rat;
A procedure based on that described by Lipman, W. (J. Pharm. Pharmacol., 21: 335 [1968]) was used to assess the influence of test compounds on gastric secretion. Rats of one sex weighing 150 to 200 g were randomly divided into groups of six animals each and fasted for 48 hours previous to the experiments, water being available ad libitum. The animals were anesthetized with ether, the abdomen opened through a midline incision, and the pylorus ligated. Test compounds were diluted from stock solution so as to administer a dose of 1.5 mg/kg in a volume equivalent to 1 ml/kg. Subcutaneous injections were applied immediately after surgery and again 2 hours later, so that a total dose of 3.0 mg/kg was administered. Dilutions were made with phosphate buffer (pH 7.38) as recommended by Lee et al. (Prostaglandins, 3: 29 [1973]) in order to insure adequate stability of drugs at the subcutaneous depot. […]
Four hours after pyllric ligation the animals were killed with ether, the cardias ligated, and the stomachs removed. The volume of gastric secretion was measured and the contents centrifuged at 5000 rpm for 10 minutes. […]
Volume and total acid values of the treated group were compared with those of the controls […]. Antisecretory activity was scored according to the following scale: […]

[3] = system: rabbit aortic strip; assay: Cascade assay: rabbit aortic strip; type: cell-based; conditions: in vitro, smooth muscle stimulant ED50 scored
Protocol: (§1) (A) effects on the rat stomach, rat colon, chick rectum, and rabbit aorta in vitro (cascade assay);
(§2) The smooth muscle stimulant effects of test compounds were determined simultaneously in four different tissues that are known to be reactive to naturally occurring prostaglandins. Segments of rat stomach fundus, rat colon, chick rectum and rabbit aortic strip were obtained as described by: Vane, J. R., Brit. J. Pharmacol., 12: 344 (1957); Regoli, D. and Vane, J. R., Brit. J. Pharmacol., 23: 351 (1964); Mann, M. and West, G. B., Brit. J. Pharmacol., 5: 173 (1950); and Furchgott, R. F. and Bhadrakom, R., J. Pharmacol. Exper. Ther., 108: 129 (1953). One end of each preparation was tied to the bottom of a 10 ml tissue chamber and the other to a force displacement transducer (Grass FT-03) for continuous tension recording. The stomach, colon, and rectum segments were stretched to an initial tension of 1 g, while the aortic strip was subjected to 4 g. All preparations were left undisturbed for 1 hour prior to testing. […]
(§3) Test compounds were diluted from stock solutions so as to administer quantities ranging from 0.0001 to 100,000 ng in a volume of 0.5 ml. […] Maximal increases in tension after each dose were measured and the results were used to plot dose-response curves. […]
(§4) Activity in each tissue was scored according to the following scale: […]

[4] = system: chick rectum; assay: Cascade assay: chick rectum; type: cell-based; conditions: in vitro, smooth muscle stimulant ED50 scored
Protocol: as §1, §2, §3, §4

[5] = system: rat colon; assay: Cascade assay: rat colon; type: cell-based; conditions: in vitro, smooth muscle stimulant ED50 scored
Protocol: as §1, §2, §3, §4

[6] = system: rat stomach fundus; assay: Cascade assay: rat stomach fundus; type: cell-based; conditions: in vitro, smooth muscle stimulant ED50 scored
Protocol: as §1, §2, §3, §4

[7] = system: hypertensive rat; assay: Effects on blood pressure in the hypertensive rat; type: in vivo; parameters: key: 0: Not significant at any time interval; 1: Significant at one time interval; 2: Significant at two time intervals; conditions: 1 mg/kg intraperitoneal; 2, 4, 6 and 9 hours
Protocol: (I) effect on systolic blood pressure in the hypertensive rat
The acute anithypertensive activity of test compounds was determined in rats made hypertensive by the procedure of Grollman (Proc. Soc. Exper Biol. Med., 57: 102 [1944]). Female rats weighing between 60 and 100 g were anesthetized with ether, the right kidney approached through a flank retroperitoneal incision, decapsulated and tied with a figure-of-eight-ligature. The animals were left to recover and two weeks later were again anesthetized and the contralateral kidney removed. […]
Blood pressure was measured in the tail with an inflatable occluding cuff placed at the base of the extremity and a pulse detector located distally. The cuff was inflated to approximately 300 mmHg and was slowly deflated until pulsations appeared, indicating the level of systolic pressure; diastolic pressure was not recorded by this procedure. […] In all cases, three pressure readings were obtained in succession and mean values were calculated thereof.
Experiments were carried out in groups of five hypertensive rats in which systolic pressure was determined immediately before and 2, 4, 6 and 9 hours after intraperiotoneal administration of the test compound at a dose of 1 mg/kg. Drugs were diluted from stock solutions with phosphate buffer (Lee et al., Prostaglandins, 3: 29 [1973]), so as to inject this quantity in a volume of 1 ml/kg. […]

[8] = system: rat uterus; assay: Effects on the rat uterus in vitro; type: cell-based; conditions: dose producing response 50% that of carbachol
Protocol: (B) effect on the rat uterus in vitro;
The uterine stimulant effect of test compounds was determined in segments of uterus obtained from rats (140-160 g) pretreated subcutaneously with 1 mg/kg of diethylstilbesterol 18 hours before the experiment. The tissues were placed in 10 ml chambers filled with de-Jalon solution at 29° C., were aerated and bubbled with 95% O2 and 5% CO2, and were prepared for isometric recording with force displacement transducers. Preparations were stretched to an initial tension of 1 g and were left undisturbed for 30 minutes. Carbachol (1 mcg/ml) was then added to the bath and a response was recorded. After a ten minute interval the carbachol procedure was repeated. Responses to increasing concentrations of a test compound (0.001 to 10 mcg/ml with one log intervals) were then recorded every 10 minutes. Preparations were washed four times after each response. All doses of compounds were administered in a 0.1 ml volume. Because it has been observed that the magnitude of the second response to carbachol (approximately 10% greater than the first) is close to the maximal response of the tissue, such value was taken as a measure of the sensitivity of a particular segment. Responses to each concentration of the test compound were expressed in terms of percentage of the second response to carbachol and the ED50 (dose producing a response 50% that of carbachol) was calculated graphically.
Activity was scored according to the following scale: […]

[9] = system: man; conditions: cited from earlier work
[10] = system: growth hormone; conditions: rats; cited from earlier work
[11] = system: blood platelets; conditions: in vitro; cited from earlier work
[12] = system: adrenal glands; conditions: hypophysectomized rats; cited from earlier work
[13] = system: human platelet; conditions: compared with compounds of Formula IV; cited from earlier work
[14] = system: tracheal smooth muscle; conditions: in vitro, most mammalian respiratory tracts; cited from earlier work
[15] = system: motor pathways in the central nervous system; conditions: cited from earlier work
[16] = system: smooth muscle of the vas deferens; conditions: cited from earlier work
[17] = variety of mammals; cited from earlier work

COC(=O)CCCc1ccccc1CC1C(=O)CCC1/C=C(\c1ccccc1)[C@H](C)O (stereo partly drawn) [Example 4, Methyl 5,6,17,18,19,20-hexanor-4,7,-inter-o-phenylene-14-phenyl-15S-hydroxy-9-oxo-ent-prost-13E-en-1-oate]
Platelet Aggregation: activity value (ED50) [1]: 1 (>0.1 and ≤1.0)
Gastric Secretion: activity value (% decrease in acidity) [2]: 0 (<26)
Cascade, Aorta: activity value (ED50) [3]: 0 (>10000)
Cascade, Rectum: activity value (ED50) [4]: 0 (>10000)
Cascade, Colon: activity value (ED50) [5]: 0 (>10000)
Cascade, Stomache: activity value (ED50) [6]: 0 (>10000)
Blood Pressure Hypertensive Rat: activity value [7]: 0
Rat Uterus: activity value (ED50) [8]: 0 (>10)

CCCCC[C@H](O)/C=C/[C@H]1C=CC(=O)[C@@H]1CCCCCCC(=O)O [PGA1]
gastric secretion, man [9]: exhibits similar activity in man
synthesis of the growth hormone [10]: increases its synthesis

CCCCC[C@H](O)/C=C/[C@H]1[C@H](O)CC(=O)[C@@H]1CCCCCCC(=O)O [PGE1]
aggregation of blood platelets [11]: inhibits aggregation of blood platelets in vitro
steroidogenesis in the adrenal glands [12]: stimulate stereoidogenesis in the adrenal glands
inhibition of human platelet aggregation, comparison with natural prostaglandin [13]: displays similar activity
effect on tracheal smooth muscle [14]: relax
transmission along motor pathways in the central nervous system [15]: retards
release of the growth hormone [10]: increase the release of the growth hormone
effect on smooth muscle of the vas deferens [16]: contracts the smooth muscle of the vas deferens

CCCCC[C@H](O)/C=C/[C@@H]1[C@@H](CCCCCCC(=O)O)[C@@H](O)C[C@H]1O [PGF1α]
steroidogenesis in the adrenal glands [12]: stimulate stereoidogenesis in the adrenal glands
luteolytic effect [17]: act as luteolytic factors
